Experimental data: patent EP2060571A1, “Insecticide iminoheterocycles” (Bayer CropScience AG, priority 2007, dated 2009)
Like-named read-outs stand apart in the source and are kept apart here.

Columns and labels:
Myzus persicae = assay: Myzus test (spray treatment); format: in vivo; settings: Aufwandmenge 500 g/ha, Chinakohlblattscheiben (Brassica pekinensis) sprayed, 100 % = all aphids killed, read-out: Wirkung
Text: Myzus-Test (Spritzbehandlung)
Zur Herstellung einer zweckmäßigen Wirkstoffzubereitung vermischt man 1 Gewichtsteil Wirkstoff mit den angegebenen Mengen Lösungsmittel und Emulgator und verdünnt das Konzentrat mit emulgatorhaltigem Wasser auf die gewünschte Konzentration.
Chinakohlblattscheiben (Brassica pekinensis), die von allen Stadien der Grünen Pfirsichblattlaus (Myzus persicae) befallen sind, werden mit einer Wirkstoffzubereitung der gewünschten Konzentration gespritzt.
Nach der gewünschten Zeit wird die Wirkung in % bestimmt. Dabei bedeutet 100 %, dass alle Blattläuse abgetötet wurden; 0 % bedeutet, dass keine Blattläuse abgetötet wurden.

[1] = logP determination (acidic, HCOOH); format: physicochemical
Boophilus microplus = Boophilus microplus test (BOOPMI injection); format: in vivo; settings: Aufwandmenge 20 µg/Tier; injected into the abdomen; 100 % = no tick laid fertile eggs
Text: Boophilus microplus -Test (BOOPMI Injektion)
Lösungsmittel: Dimethylsulfoxid
Zur Herstellung einer zweckmäßigen Wirkstoffzubereitung vermischt man 1 Gewichtsteil Wirkstoff mit der angegebenen Menge Lösungsmittel und verdünnt das Konzentrat mit Lösungsmittel auf die gewünschte Konzentration.
Die Wirkstofflösung wird in das Abdomen (Boophilus microplus) injiziert, die Tiere werden in Schalen überführt und in einem klimatisierten Raum aufbewahrt.
Nach der gewünschten Zeit wird die Wirkung in % bestimmt. Dabei bedeutet 100%, dass keine Zecke fertile Eier gelegt hat.

[2] = acidic (HCOOH), read-out: Phys. Daten = logP (HCOOH)
[3] = hcooh, read-out: Phys. Daten = logP (HCOOH)

| logP [1, 2] | logP ([1]; sauer, read-out: logP (sauer)) | logP [1, 3] | Compound | mortality at 500 g/ha (Myzus persicae) | Wirkung (Boophilus microplus) |
| --- | --- | --- | --- | --- | --- |
|  | 1.4 | 1.4 | OCCNC(=S)NC1CCCc2occc21 (stereo not shown) [II-2, 1-(2-hydroxyethyl)-3-(4,5,6,7-tetrahydro-1-benzofuran-4-yl)thiourea] | ≥ 80% |  |
|  |  | 1.7 | OCCNC(=S)NC1CCCc2sccc21 (stereo not shown) [II-3] | ≥ 80% |  |
|  |  | 1.3 | C[C@H](NC(=S)NCCO)c1cccs1 [II-74] |  |  |

Second part, the compound before the results:

| Compound | logP [1, 2] | logP ([1]; sauer, read-out: logP (sauer)) | logP [1, 3] | mortality at 500 g/ha (Myzus persicae) | Wirkung (Boophilus microplus) |
| --- | --- | --- | --- | --- | --- |
| CC(C)c1cs/c(=N\C2CCc3ccsc32)n1CCO (stereo not shown) [I-1, 2-[(2Z)-2-(5,6-dihydro-4H-cyclopenta[b]thiophen-6-ylimino)-4-(1-methylethyl)-1,3-thiazol-3(2H)-yl]ethanol] | 1.19 | 1.19 |  | ≥ 80% | ≥ 80% |
| CC(C)c1cs/c(=N\C2CCCc3occc32)n1CCO (stereo not shown) [I-2] | 1.23 | 1.23 |  | ≥ 80% |  |
| OCCNC(=S)NC1CCc2ccsc21 (stereo not shown) [II-1, (5,6-dihydro-4H-cyclopenta[b]thiophen-6-yl)-3-(2-hydroxyethyl)thiourea] |  | 1.47 | 1.47 | ≥ 80% |  |
